Source: the supplement of paper PMC8960247
Where a name gives a salt, the structure may show the parent alone. ± gives the standard error.

How the values were obtained:
[1] = test system: 621-103 (TSC2-rescued); assay: relative viability vs DMSO; higher = less cytotoxic; conditions: serum: 10% FBS, 72 h
[2] = test system: 621-102 (TSC2-deficient); assay: as above; conditions: serum: 10% FBS, 72 h
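Further: immortalized renal angiomyolipoma cells stably carrying empty vector or TSC2, dosed in 384-well plates in DMEM, viability normalized to vehicle-treated wells within each plate.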

Compound	relative viability ([1]; 0.0001 µM) [%]	relative viability ([1]; 0.001 µM) [%]	relative viability ([1]; 0.01 µM) [%]	relative viability ([1]; 0.1 µM) [%]	relative viability ([1]; 1 µM) [%]	relative viability ([1]; 10 µM) [%]	relative viability ([2]; 0.0001 µM) [%]	relative viability ([2]; 0.001 µM) [%]	relative viability ([2]; 0.01 µM) [%]	relative viability ([2]; 0.1 µM) [%]	relative viability ([2]; 1 µM) [%]	relative viability ([2]; 10 µM) [%]
CN1CCc2c(c3ccccc3n2Cc2ccc(C(=O)NO)cc2)C1 [Tubastatin A HCl]	101 ± 2.1	102 ± 2.5	101 ± 3.4	100 ± 2.9	98.48 ± 0.54	90.6 ± 1.5	73.7 ± 1.7	91.6 ± 2.8	85.5 ± 1	90.1 ± 3.6	82.6 ± 2.3	75.4 ± 2.7
N#CC(=C(/N)Sc1ccccc1N)/C(C#N)=C(\N)Sc1ccccc1N [U0126-EtOH]	105 ± 2.4	101 ± 1.1	99.9 ± 1.5	101 ± 2	100.6 ± 0.44	90.4 ± 1.6	105 ± 3.4	103 ± 1.3	103 ± 2.5	103 ± 1.1	99.47 ± 0.83	93.3 ± 4.4
NC(=O)c1cccc(-c2cccc(OC(=O)NC3CCCCC3)c2)c1 [URB597]	103 ± 3.1	106 ± 3.3	103 ± 1.4	106 ± 2.8	104 ± 4	112.8 ± 0.77	104.9 ± 0.41	107 ± 7	109.5 ± 0.46	98.4 ± 2.9	99.6 ± 4.4	92.7 ± 5.8
CC(C)(C)C#Cc1cc(N(C(=O)[C@H]2CC[C@H](C)CC2)[C@H]2CC[C@H](O)CC2)c(C(=O)O)s1 [VX-222]	105.5 ± 0.52	102.7 ± 0.81	100 ± 1.2	99.76 ± 0.98	104 ± 4.7	105.42 ± 0.075	109 ± 1.1	117.11 ± 0.037	111 ± 2	111 ± 1.3	103 ± 4.3	106 ± 4.4
